Measurements as given in patent US11369587B2, “Injectable pharmaceutical composition of tecovirimat and preparation method thereof” (priority 2016, dated 2022).

What was measured:
[1] = assay type: physicochemical; settings: ternary solubilizing composition of Tecovirimat, cyclodextrin and Meglumine
Method: An excessive amount of Tecovirimat was added to an aqueous solution comprising meglumine and cyclodextrin at a different ratio to form a suspension. The suspension was placed in a constant-temperature incubation shaker, and was shaken at a temperature of 25±1° C., 37±1° C. and 60±1° C. for 72 h, respectively. After reaching equilibrium, the suspension was filtered through a 0.45 μm hydrophilic filter membrane to obtain a filtrate. After the filtrate was properly diluted with an acetonitrile-water (50:50, v/v) solution, the absorbance was measured at 224 nm, and the solubility of Tecovirimat was calculated. The corresponding solubility curve was plotted by using the solubility of the drug as the ordinate, and using the concentration of cyclodextrin and/or meglumine as the abscissa.

[2] = 20%-40% (w/v) hydroxypropyl-cyclodextrin (HP-3-CD) at 37° C.; cited from earlier work

In the case of `O=C(NN1C(=O)[C@@H]2[C@@H]3C=C[C@@H]([C@H]4C[C@@H]34)[C@@H]2C1=O)c1ccc(C(F)(F)F)cc1` [Tecovirimat, 4-trifluoromethyl-N-(3,3a,4,4a,5,5a,6,6a-octahydro-1,3-dioxo-4,6-ethenocycloprop[f]isoindol-2(1H)-yl)-benzamide], the maximal solubility [1] is given as “up to 152 mg/ml” and the solubility [2] is given as 1500 to 11000 µg/mL.
